Test results: article PMC4976923, “Potent Allosteric Dengue Virus NS5 Polymerase Inhibitors: Mechanism of Action and Resistance Profiling” (PLoS Pathogens, 2016)

How the values were obtained:
DENV2 FL NS5 = molecular target: T1, DENV2 FL NS5 (Dengue virus type 2, UniProt P14340); test: DENV2 FL NS5 de novo initiation FAPA assay; type: biochemical; conditions: one experiment; read-out: DENV FL NS5 de novo initiation FAPA, IC50, DENV2
T1 construct: made in house
Protocol: DENV1-4 FL NS5 dnI assays were performed as described previously. Briefly, compounds from 0–20 or -100 μM concentrations are two-fold serially diluted into 384-well black opaque plates (Corning Costar), after which 100 nM DENV FL NS5 protein was added and the plates incubated at RT for 20 min. RNA and ATTO-CTP, ATP, GTP and UTP were then added and the plates incubated for another 120 min. […] For order-of-addition experiments, DENV4 FL NS5 was incubated for one hour at RT with RNA, ATP, and GTP or RNA, ATP, GTP and ATTO-CTP, followed by exposure to serially diluted compounds for 20 min at RT. The missing components (ATTO-CTP and UTP or UTP alone) were added and the reactions continued for 120 min after which STOP buffer was added as before. All datapoints were performed in duplicate wells. Each compound was tested at least twice.
(§1) 2 Co mpound testing with DENV dn I FAPA assays. Final dn I assa y reaction mixtures
(§2) 3 contained 100 nM DENV 5 ´UTR-L-3´UTR IVT RNA, 20 µ M ATP, 20 µM GTP, 20 µM
(§3) 4 UTP, 5 µM ATTO -CTP, and 100 nM of DENV FL NS5 protein in 15 µl in assa y buffer
(§4) 5 comprising 50 mM Tris/ HCl, pH 7.5, 10 mM KCl, 1 mM MgCl2, 0.3 mM MnCl2 (DENV2
(§5) 6 and 4) or 1 mM MnCl 2 (DENV1 and 3), 0.001% Triton- X-100 and 10 µ M cystein e [ 1] . To
(§6) 7 perform dose-respons e inhibition measurements, compounds from 0- 20 or - 100 µM
(§7) 8 concentr ations are two -fold seriall y diluted into 384-well black opaqu e plat es (Corning
(§8) 9 Costar), after which 100 nM DENV FL NS5 protein was added into resp ect ive wells. The
(§9) 10 plates wer e sealed, b riefl y shak en and centrif uged at 1500 rpm for 30 sec and incubated at RT
(§10) 11 for 15 min. Thereafter,RNA and ATTO -CTP, ATP, GTP and UTP were added to the wells to
(§11) 12 start the reactions. The pl ates wer e re-seal ed, shaken and centrifuged as before, followed b y
13 incubation RT for 120 min.
(§12) 15 intestinal phosphatase (CIP), re- incubation at RT for 60 min and read on a Tecan Safire II
16 microplate reader. For o r der-of-addition experiments, DENV4 FL NS5 was incubated for one
17 hour at RT with RNA, ATP, and GTP or RNA, ATP, GTP and ATTO-CTP, followed by
18 exposure to seriall y dilut ed compounds for 20 mi n at RT. The missing components (ATTO-
19 CTP and UTP or UTP alone) were added and the reactions continued for 120 min after which
20 STOP buffer was added as before. All datapoints were performed in duplicate wells. Each
21 compound was tested at l east twice.
23 Compound testing in DENV1-4 infected cells by high content imaging. Approximatel y 7
24 × 10^3 A549 cells per well were s eeded into 384-well plates in Ham’s F-12K medium

DENV1, strain MY97-10245 = test: DENV1 infected A549 cells, high content imaging (HCI); type: cell-based; conditions: 48 hr
Protocol: as §1, §2, §3, §4, §5, §6, §7, §8, §9, §10, §11
(§13) 13 incubation RT for 120 min. […]
as §12
(§14) 16 microplate reader. […]
(§15) 8 DENV envelope protein ) and DRAQ5 (for nucl ear DNA) . Quantifications of DENV
(§16) 9 envelope protein were determined using the Opera high content imaging s ystem and anal ysis […]
(§17) 17 µM concentrations. At 48 hr of post-incubation, r enilla luciferas e activities were measured […]

DENV3 strain MY05-34640 = test: DENV3 infected A549 cells, high content imaging (HCI); type: cell-based; conditions: 48 hr
Protocol: as §1, §2, §3, §4, §5, §6, §7, §8, §9, §10, §11, §13, §12, §14, §15, §16, §17

DENV4, strain MY01-22713 = test: DENV4 infected A549 cells, high content imaging (HCI); type: cell-based; conditions: 48 hr
Protocol: as §1, §2, §3, §4, §5, §6, §7, §8, §9, §10, §11, §13, §12, §14, §15, §16, §17

DENV3 FL NS5 = molecular target: T2, DENV3 FL NS5 (Dengue virus type 3, UniProt Q6YMS4); conditions: read-out: DENV FL NS5 de novo initiation FAPA, IC50, DENV3; cited from earlier work
T2 construct: 100 nM DENV FL NS5 protein was added; made in house
T2 sequence (Q6YMS4 2491-3390): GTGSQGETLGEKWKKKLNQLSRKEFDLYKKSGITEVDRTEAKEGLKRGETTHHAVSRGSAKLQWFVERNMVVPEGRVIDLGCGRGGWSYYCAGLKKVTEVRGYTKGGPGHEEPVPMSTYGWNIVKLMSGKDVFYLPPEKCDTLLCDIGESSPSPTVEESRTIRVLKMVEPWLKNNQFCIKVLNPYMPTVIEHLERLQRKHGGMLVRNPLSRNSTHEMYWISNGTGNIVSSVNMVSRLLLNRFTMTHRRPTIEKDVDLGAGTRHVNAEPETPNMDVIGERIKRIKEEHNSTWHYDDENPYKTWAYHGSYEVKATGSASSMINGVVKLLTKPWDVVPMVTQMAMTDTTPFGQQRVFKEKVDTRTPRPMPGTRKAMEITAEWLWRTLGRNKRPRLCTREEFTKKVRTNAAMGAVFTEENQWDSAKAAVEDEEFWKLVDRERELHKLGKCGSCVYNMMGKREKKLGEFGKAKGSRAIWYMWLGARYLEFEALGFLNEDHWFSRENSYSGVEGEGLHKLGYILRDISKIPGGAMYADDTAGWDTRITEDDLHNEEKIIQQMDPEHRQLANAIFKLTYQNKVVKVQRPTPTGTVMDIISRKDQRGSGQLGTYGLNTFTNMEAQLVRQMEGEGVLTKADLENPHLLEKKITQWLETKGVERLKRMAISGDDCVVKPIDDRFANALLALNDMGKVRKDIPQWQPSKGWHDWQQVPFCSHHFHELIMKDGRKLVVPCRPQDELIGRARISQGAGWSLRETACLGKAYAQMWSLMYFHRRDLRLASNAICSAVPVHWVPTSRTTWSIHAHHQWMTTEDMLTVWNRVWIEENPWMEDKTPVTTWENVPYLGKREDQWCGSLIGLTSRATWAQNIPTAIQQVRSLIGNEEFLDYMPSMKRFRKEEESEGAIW

DENV1 FL NS5 = molecular target: T3, DENV1 FL NS5 (Dengue virus type 1, UniProt P17763); conditions: read-out: DENV FL NS5 de novo initiation FAPA, IC50, DENV1; cited from earlier work
T3 construct: 100 nM DENV FL NS5 protein was added; made in house
T3 sequence (P17763 2494-3392): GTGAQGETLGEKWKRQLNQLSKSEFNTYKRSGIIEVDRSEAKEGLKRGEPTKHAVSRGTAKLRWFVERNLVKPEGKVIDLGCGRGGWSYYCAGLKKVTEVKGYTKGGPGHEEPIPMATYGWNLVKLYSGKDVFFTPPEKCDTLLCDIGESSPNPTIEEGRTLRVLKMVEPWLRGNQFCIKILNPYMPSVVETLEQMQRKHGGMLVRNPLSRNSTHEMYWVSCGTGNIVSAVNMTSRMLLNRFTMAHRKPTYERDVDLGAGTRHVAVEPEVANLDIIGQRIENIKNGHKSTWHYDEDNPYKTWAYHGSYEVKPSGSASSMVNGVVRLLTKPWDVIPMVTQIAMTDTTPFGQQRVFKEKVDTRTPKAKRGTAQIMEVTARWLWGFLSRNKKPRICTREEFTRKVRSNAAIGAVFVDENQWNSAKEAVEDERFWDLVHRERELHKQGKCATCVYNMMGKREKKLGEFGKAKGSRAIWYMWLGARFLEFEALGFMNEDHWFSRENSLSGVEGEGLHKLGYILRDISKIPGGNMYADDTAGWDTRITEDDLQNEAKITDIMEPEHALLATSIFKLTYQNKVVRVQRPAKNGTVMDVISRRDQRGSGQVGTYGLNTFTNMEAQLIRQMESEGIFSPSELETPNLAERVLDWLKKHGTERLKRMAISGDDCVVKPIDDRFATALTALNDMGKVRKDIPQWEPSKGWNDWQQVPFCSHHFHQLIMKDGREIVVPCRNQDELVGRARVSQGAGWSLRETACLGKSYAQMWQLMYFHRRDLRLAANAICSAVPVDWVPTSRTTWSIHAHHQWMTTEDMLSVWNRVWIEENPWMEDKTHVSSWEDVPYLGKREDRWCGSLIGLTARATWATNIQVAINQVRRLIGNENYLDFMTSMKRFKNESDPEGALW

Compound | IC50 (DENV2 FL NS5) | EC50 (DENV1, strain MY97-10245) | EC50 (DENV3 strain MY05-34640) | EC50 (DENV4, strain MY01-22713) | IC50 (DENV3 FL NS5) | IC50 (DENV1 FL NS5)
COc1cccc(S(=O)(=O)NC(=O)c2cc(-c3ccc(C#CCO)s3)c(OC)cc2C)c1 [Compound 26i] | 0.086 µM | 15.2 µM | 16.8 µM | 20.4 µM | – | –
COc1cccc(S(=O)(=O)NC(=O)c2cc(-c3ccc(C#CCO)s3)c(OC)cc2OC)c1 [Compound 27] | – | – | – | – | 0.048 µM | 0.068 µM
